Our source for the % of control, % of inhibition and % of engagement values is ChEMBL document CHEMBL5465560, “Selectivity Literature for EUbOPEN Chemogenomic Library” (2024).

Structures are written as SMILES.

Test [1] has as its target T1, Serine/threonine-protein kinase TAO2 (Homo sapiens) (UniProt Q9UL54).
T1 sequence (whole entry): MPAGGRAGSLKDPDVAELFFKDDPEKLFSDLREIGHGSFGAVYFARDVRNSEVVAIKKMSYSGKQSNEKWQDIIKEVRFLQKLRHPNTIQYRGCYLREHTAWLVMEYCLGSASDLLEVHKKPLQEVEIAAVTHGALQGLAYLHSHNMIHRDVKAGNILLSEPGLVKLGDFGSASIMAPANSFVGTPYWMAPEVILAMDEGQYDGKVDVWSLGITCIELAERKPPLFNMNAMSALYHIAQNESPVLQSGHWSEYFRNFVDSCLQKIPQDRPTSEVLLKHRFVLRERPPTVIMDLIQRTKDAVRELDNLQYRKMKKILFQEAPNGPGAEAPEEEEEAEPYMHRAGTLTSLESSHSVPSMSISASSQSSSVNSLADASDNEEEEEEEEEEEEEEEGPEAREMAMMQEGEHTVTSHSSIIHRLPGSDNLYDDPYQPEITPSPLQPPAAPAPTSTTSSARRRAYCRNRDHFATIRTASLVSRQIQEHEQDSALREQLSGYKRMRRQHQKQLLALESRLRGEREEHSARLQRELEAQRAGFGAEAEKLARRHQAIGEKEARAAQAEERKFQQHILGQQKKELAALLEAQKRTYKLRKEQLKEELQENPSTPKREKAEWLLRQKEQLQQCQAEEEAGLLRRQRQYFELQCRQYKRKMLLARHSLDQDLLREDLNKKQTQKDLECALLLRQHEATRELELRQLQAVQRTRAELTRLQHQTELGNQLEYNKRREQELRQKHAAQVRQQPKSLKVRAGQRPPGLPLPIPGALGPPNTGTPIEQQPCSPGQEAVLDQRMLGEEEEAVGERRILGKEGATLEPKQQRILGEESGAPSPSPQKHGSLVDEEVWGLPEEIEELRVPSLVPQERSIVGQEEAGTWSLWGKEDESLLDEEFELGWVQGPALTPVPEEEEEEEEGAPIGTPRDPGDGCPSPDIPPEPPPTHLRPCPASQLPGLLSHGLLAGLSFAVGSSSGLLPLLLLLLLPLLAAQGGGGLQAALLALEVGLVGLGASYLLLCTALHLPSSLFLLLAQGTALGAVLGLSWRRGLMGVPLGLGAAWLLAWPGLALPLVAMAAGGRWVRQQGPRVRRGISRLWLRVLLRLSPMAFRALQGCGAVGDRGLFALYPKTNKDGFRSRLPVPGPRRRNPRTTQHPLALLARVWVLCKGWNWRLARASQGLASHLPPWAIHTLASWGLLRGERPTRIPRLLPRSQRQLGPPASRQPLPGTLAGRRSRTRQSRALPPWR
Nature of the test: Selectivity interaction (KinomeScan (DiscoverX)) EUB0000595a TAOK2. Particulars: at 10 µM.

In test [2] the target is Substance-P receptor (Homo sapiens) (UniProt P25103). The experiment in a line: Selectivity interaction (Eurofins CEREP Diversity Profile (receptors and ion channels)) EUB0000279b TACR1. The note with it: at 10 µM.
Chain of Substance-P receptor (Homo sapiens) (P25103 whole entry): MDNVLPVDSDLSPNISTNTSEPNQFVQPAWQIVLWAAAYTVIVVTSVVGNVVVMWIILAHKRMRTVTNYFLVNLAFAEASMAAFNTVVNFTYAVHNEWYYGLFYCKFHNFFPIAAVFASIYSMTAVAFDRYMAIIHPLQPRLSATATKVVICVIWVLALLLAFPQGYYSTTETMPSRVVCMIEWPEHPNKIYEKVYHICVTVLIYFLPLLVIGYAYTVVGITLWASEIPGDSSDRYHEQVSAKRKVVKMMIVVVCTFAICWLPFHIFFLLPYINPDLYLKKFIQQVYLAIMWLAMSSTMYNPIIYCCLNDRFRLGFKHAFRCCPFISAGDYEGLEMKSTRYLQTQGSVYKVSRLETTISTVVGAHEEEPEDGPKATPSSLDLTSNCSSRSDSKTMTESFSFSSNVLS
Test [3] deals with Casein kinase II subunit alpha (Homo sapiens, UniProt P68400). The experiment in a line: Selectivity interaction (SelectScreen profiling (Invitrogen)) EUB0000607a CSNK2A1. The note with it: at 2 µM.
Chain of Casein kinase II subunit alpha (P68400 whole entry, looked up): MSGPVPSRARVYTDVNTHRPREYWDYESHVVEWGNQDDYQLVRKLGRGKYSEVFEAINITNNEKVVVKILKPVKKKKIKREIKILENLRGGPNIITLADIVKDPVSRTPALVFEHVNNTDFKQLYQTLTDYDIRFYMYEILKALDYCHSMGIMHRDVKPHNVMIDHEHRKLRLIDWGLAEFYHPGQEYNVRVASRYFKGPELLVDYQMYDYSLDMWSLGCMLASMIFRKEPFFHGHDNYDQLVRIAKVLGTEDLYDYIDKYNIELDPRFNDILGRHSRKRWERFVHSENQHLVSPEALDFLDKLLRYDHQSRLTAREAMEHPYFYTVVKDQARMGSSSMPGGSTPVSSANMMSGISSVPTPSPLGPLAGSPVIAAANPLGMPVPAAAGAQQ
Test [4] concerns the target T2, Serine/threonine-protein kinase Nek5 (Homo sapiens) (UniProt Q6P3R8).
T2 sequence (whole entry): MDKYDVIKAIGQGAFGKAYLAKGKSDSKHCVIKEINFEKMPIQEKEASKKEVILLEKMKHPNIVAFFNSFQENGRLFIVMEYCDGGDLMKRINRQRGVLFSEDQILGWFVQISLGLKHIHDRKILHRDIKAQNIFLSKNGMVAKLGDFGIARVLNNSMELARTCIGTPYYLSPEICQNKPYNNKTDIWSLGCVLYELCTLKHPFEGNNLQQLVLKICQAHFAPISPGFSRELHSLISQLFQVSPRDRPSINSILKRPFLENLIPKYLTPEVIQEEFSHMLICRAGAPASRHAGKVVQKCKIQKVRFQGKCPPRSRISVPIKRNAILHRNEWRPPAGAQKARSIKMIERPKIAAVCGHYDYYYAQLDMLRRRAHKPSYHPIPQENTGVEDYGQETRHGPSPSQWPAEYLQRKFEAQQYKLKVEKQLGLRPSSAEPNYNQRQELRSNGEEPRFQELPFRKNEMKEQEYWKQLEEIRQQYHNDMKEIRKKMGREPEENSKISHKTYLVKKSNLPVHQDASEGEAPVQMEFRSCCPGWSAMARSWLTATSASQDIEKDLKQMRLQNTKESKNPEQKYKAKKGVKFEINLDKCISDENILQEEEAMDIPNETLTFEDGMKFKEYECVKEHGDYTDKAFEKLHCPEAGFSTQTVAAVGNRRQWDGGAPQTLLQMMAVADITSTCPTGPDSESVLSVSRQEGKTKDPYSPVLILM
Nature of the test: Selectivity interaction (KinomeScan (DiscoverX)) EUB0000607a NEK5. The note with it: at 10 µM.

Another test has as its target Misshapen-like kinase 1 (Homo sapiens, UniProt Q8N4C8). Nature of the test: Selectivity interaction (SelectScreen profiling (Invitrogen)) EUB0000607a MINK1. Particulars: at 2 µM.
The target of test [5] is Serine/threonine-protein kinase PLK3 (Homo sapiens, UniProt Q9H4B4). The experiment in a line: Selectivity interaction (Kinase panel (Invitrogen)) EUB0000639a PLK3. Particulars: at 200 nM.
Chain of Serine/threonine-protein kinase PLK3 (Q9H4B4 whole entry, looked up): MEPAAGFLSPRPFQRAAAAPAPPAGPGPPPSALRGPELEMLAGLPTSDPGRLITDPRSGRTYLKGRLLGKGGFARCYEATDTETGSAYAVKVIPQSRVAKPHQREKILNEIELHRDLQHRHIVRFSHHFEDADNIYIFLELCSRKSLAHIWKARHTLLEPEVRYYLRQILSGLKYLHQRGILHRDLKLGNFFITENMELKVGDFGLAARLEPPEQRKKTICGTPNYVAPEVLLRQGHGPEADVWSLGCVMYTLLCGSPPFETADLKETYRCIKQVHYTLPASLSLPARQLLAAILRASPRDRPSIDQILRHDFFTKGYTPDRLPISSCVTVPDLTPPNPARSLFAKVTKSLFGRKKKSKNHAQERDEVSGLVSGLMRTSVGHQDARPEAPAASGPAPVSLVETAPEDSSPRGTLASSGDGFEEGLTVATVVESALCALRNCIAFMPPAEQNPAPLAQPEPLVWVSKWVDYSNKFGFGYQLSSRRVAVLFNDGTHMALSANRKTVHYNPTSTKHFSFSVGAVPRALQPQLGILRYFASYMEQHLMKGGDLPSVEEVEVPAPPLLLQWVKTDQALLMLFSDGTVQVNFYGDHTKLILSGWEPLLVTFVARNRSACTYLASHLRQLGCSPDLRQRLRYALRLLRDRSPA
The target in test [6] is T3, Uncharacterized serine/threonine-protein kinase SBK3 (Homo sapiens) (UniProt P0C264).
T3 sequence (whole entry): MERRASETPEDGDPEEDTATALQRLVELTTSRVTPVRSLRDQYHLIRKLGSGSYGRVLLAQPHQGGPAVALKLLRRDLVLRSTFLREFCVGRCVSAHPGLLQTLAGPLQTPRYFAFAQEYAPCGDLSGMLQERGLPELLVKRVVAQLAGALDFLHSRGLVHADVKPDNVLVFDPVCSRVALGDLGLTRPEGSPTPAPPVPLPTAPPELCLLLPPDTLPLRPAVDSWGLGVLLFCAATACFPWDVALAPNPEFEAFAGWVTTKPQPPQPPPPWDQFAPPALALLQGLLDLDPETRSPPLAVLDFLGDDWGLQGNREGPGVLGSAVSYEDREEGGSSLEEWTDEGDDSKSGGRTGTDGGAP
Nature of the test: Selectivity interaction (Ambit KINOMEscan and KiNATiv profiling in Jurkat cells) EUB0000090b SBK3. It counts as cell-based. The note with it: at 1 µM.

Test [7] concerns the target Calcium/calmodulin-dependent protein kinase type 1D (Homo sapiens) (UniProt Q8IU85). The experiment in a line: Selectivity interaction (Kinase panel (KiNativ target engagement assay in Jurkat cells)) EUB0001635a CAMK1D. It counts as cell-based. The note with it: at 1 µM.

Chain of Calcium/calmodulin-dependent protein kinase type 1D (Homo sapiens) (Q8IU85 whole entry, looked up): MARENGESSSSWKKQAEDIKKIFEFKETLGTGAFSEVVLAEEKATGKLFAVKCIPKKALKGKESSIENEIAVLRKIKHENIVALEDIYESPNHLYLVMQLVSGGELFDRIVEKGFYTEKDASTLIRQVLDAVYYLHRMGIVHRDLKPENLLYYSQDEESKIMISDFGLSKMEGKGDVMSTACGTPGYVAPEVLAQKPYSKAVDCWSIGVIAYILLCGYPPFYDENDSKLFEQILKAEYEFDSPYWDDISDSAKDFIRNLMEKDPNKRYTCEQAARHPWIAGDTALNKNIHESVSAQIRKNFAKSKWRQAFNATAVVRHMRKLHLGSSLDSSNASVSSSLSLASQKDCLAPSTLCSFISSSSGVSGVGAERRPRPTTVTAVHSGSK
Chain of Misshapen-like kinase 1 (Q8N4C8 whole entry, looked up): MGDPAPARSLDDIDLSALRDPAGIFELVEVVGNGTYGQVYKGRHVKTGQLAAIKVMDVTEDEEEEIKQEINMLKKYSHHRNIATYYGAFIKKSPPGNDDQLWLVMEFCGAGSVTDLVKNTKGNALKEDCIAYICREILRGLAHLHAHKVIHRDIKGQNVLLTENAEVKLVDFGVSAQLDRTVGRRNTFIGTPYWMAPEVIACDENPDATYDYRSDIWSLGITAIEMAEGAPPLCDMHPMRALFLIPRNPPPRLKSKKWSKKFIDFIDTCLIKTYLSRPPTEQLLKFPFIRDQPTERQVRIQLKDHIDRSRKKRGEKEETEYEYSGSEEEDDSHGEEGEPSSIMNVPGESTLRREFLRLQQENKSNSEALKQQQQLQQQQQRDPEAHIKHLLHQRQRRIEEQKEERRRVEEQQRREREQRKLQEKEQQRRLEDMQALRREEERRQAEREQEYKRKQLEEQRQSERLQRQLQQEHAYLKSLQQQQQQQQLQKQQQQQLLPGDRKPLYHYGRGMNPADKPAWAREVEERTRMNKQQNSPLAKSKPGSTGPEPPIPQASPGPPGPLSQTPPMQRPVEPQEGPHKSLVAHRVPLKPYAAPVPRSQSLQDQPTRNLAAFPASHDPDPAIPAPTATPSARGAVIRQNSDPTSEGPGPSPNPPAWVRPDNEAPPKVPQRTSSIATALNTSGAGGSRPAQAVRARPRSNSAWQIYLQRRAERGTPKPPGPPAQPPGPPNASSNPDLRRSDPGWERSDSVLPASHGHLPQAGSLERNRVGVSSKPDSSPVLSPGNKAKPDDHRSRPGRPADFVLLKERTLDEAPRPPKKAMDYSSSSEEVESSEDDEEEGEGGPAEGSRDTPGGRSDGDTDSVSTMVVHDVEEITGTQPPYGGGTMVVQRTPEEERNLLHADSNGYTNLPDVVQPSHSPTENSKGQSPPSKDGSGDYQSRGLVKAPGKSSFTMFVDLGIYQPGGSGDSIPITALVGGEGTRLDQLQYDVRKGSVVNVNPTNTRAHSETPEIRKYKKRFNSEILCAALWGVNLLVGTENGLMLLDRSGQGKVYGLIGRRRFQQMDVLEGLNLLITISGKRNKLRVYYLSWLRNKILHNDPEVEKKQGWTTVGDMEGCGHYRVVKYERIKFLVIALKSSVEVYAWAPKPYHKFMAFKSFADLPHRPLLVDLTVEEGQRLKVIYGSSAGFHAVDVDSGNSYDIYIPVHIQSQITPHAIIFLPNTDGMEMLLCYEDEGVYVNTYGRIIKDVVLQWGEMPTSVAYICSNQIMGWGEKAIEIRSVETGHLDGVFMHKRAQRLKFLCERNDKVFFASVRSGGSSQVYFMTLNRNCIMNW

On to `COCC(=O)NC/C=C/c1ccc2ncnc(Nc3ccc(Oc4ccc(C)nc4)c(C)c3)c2c1` [CP-724714], for which the % of control in test [1] is 100%.

Regarding `CC(=O)c1cc(-c2ccccc2OCC2CC2)c2ncccn12`, the % of control in test [2] was 72%. Take `CNC(=O)Nc1ccc(-c2nc(N3CC4CCC(C3)O4)c3cnn(C4CCC5(CC4)OCCO5)c3n2)cc1`: the % of inhibition in test [3] amounted to 0%; at Misshapen-like kinase 1, 14%. The compound further registered a % of control in test [4] of 81%. For `CC[C@@H]1[C@H](F)C(=O)N[C@@H]1COc1nccc2cc(C(N)=O)c(OC)cc12` [ZIMLOVISERTIB], in test [5], the % of inhibition turned out to be 5.09%. `CN(C)C/C=C/C(=O)Nc1ccc(C(=O)N2CCCC(Nc3ncc(Cl)c(-c4c[nH]c5ccccc45)n3)C2)cc1` (centres undefined) came in with a % of control in test [6] of 82%.

In the case of `C=CC(=O)Nc1ccc(C(=O)Nc2[nH]nc3c2CN(C(=O)N[C@H](CN(C)C)c2ccccc2)C3(C)C)cc1`, the % of engagement was determined as 18.9% in test [7] (Selectivity number of off-targets 0.0, Selectivity number of targets 233.0, Source Knowledge https://www.sciencedirect.com/science/article/pii/S2451945619300674?via%3Dihub) and 8.9% in test [7].
